Test results: US9062284B2, “Uses and detection of herbicide resistance genes for resistance to aryloxyalkanoate herbicides” (Dow ArgoSciences LLC, priority 2007, dated 2015)

What was measured:
[1] = system: PAT/Cry1F-transformed Arabidopsis (auxin-sensitive control); test: Herbicide response of PAT/Cry1F transformed control Arabidopsis; format: in vivo, Arabidopsis thaliana; settings: for % Injury 20-40% (individuals) / % Injury <20% (individuals) / % Injury >40% (individuals) / % Injury Ave: 14 DAT
Source text: (§1) T1 plants were then randomly assigned to various rates of 2,4-D. For Arabidopsis, 50 g ae/ha 2,4-D is an effective dose to distinguish sensitive plants from ones with meaningful levels of resistance. Elevated rates were also applied to determine relative levels of resistance (280, 560, 1120, or 2240 g ae/ha). Tables 11 and 12 show comparisons drawn to an aryloxyalkanoate herbicide resistance gene (AAD-12 (v1)) previously described in PCT/US2006/042133.
(§2) All auxin herbicide applications were made using the DeVilbiss sprayer as described above to apply 703 L/ha spray volume (0.4 ml solution/3-inch pot) or applied by track sprayer in a 187 L/ha spray volume. 2,4-D used was either technical grade (Sigma, St. Louis, Mo.) dissolved in DMSO and diluted in water (<1% DMSO final concentration) or the commercial dimethylamine salt formulation (456 g ae/L, NuFarm, St Joseph, Mo.). Dichlorprop used was commercial grade formulated as potassium salt of R-dichlorprop (600 g ai/L, AH Marks). As herbicide rates increased beyond 800 g ae/ha, the pH of the spray solution became exceedingly acidic, burning the leaves of young, tender Arabidopsis plants and complicating evaluation of the primary effects of the herbicides.
(§3) The first Arabidopsis transformations were conducted using AAD-13 (v1) (plant optimized gene). T1 transformants were first selected from the background of untransformed seed using a glufosinate selection scheme. Over 160,000 T1 seed were screened and 238 glufosinate resistant plants were identified (PAT gene), equating to a transformation/selection frequency of 0.15% which lies in the normal range of selection frequency of constructs where PAT+Liberty are used for selection. T1 plants selected above were subsequently transplanted to individual pots and sprayed with various rates of commercial aryloxyalkanoate herbicides. Table 11 compares the response of AAD-13 (v1) and control genes to impart 2,4-D resistance to Arabidopsis T1 transformants. Response is presented in terms of % visual injury 2 WAT. […] An arithmetic mean and standard deviation is presented for each treatment. The range in individual response is also indicated in the last column for each rate and transformation. PAT/Cry1F-transformed Arabidopsis served as an auxin-sensitive transformed control. The AAD-13 (v1) gene imparted herbicide resistance to individual T1 Arabidopsis plants. Within a given treatment, the level of plant response varied greatly and can be attributed to the fact each plant represents an independent transformation event. Of important note, at each 2,4-D rate tested, there were individuals that were unaffected while some were severely affected. […] At high rates the spray solution becomes highly acidic unless buffered therefore some of the injury may be attributed to the acidity of the spray solution. Arabidopsis grown mostly in the growth chamber has a very thin cuticle and severe burning effects can complicate testing at these elevated rates. Nonetheless, many individuals have survived 2,240 g ae/ha 2,4-D with little or no injury.
(§4) The ability of AAD-13 (v1) to provide resistance to other aryloxyalkanoate auxin herbicides in transgenic Arabidopsis was determined by foliar application of various substrates. T2 generation Arabidopsis seed was stratified, and sown into selection trays much like that of Arabidopsis (Example 6.4). A transformed-control line containing PAT and the insect resistance gene Cry1F was planted in a similar manner. Seedlings were transferred to individual 3-inch pots in the greenhouse. All plants were sprayed with the use of a track sprayer set at 187 L/ha. The plants were sprayed with a range of pyridyloxyacetate herbicides: 200-800 g ae/ha triclopyr (Garlon 3A, Dow AgroSciences) and 200-800 g ae/ha fluoroxypyr (Starane, Dow AgroSciences). […]

[2] = system: Homozygous AAD-12 (v1) gene T4 Arabidopsis plants; test: Herbicide response of homozygous AAD-12 (v1) T4 Arabidopsis; format: in vivo, Arabidopsis thaliana; settings: for % Injury 20-40% (individuals) / % Injury <20% (individuals) / % Injury >40% (individuals) / % Injury Ave: 14 DAT
Source text: as §1, §2, §3, §4

[3] = system: KY160 untransformed tobacco; test: Herbicide response of untransformed KY160 tobacco; format: in vivo, Nicotiana tabacum; settings: for % Injury 20-40% (individuals) / % Injury <20% (individuals) / % Injury >40% (individuals) / % Injury Ave: 2 WAT; for plant response to foliar applied auxinic herbicides (injury): 14 days after application
Source text: (§5) Surviving T1 plants were then randomly assigned to various rates of 2,4-D. For tobacco, 140 g ae/ha 2,4-D is an effective dose to distinguish sensitive plants from ones with meaningful levels of resistance. Elevated rates were also applied to determine relative levels of resistance (140, 560, or 2240 g ae/ha).
(§6) All auxin herbicide applications were applied by track sprayer in a 187 L/ha spray volume. 2,4-D used was the commercial dimethylamine salt formulation (456 g ae/L, NuFarm, St Joseph, Mo.). Some T1 individuals were subjected to alternative commercial herbicides instead of a phenoxy auxin. One point of interest was determining whether the pyridyloxyacetate auxin herbicides, triclopyr and fluoroxypyr, could be effectively degraded in planta. Herbicides were applied to T1 plants with use of a track sprayer in a 187 L/ha spray volume.
(§7) T1 transformants were first selected from the background of untransformed plants using a 2,4-D selection scheme. Table 15 compares the response of AAD-13 (v1) and control genes to impart 2,4-D resistance to tobacco T1 transformants. Response is presented in terms of % visual injury 2 WAT. […] An arithmetic mean and standard deviation is presented for each treatment. The range in individual response is also indicated in the last column for each rate and transformation. KY160 untransformed tobacco served as an auxin-sensitive control. The AAD-13 (v1) gene imparted herbicide resistance to individual T1 tobacco plants.
(§8) The ability of AAD-13 (v1) to provide resistance to other aryloxyalkanoate auxin herbicides in transgenic tobacco was determined by foliar application of various substrates. Extra T1 generation plants following the T1 progeny testing were sprayed with the use of a track sprayer set at 187 L/ha. The plants were sprayed with a range of pyridyloxyacetate herbicides: 140-1120 g ae/ha triclopyr (Garlon 3A, Dow AgroSciences) and 280-1120 g ae/ha fluoroxypyr (Starane, Dow AgroSciences). All applications were formulated in water. Each treatment was replicated 3 times. Plants were evaluated at 3 and 14 days after treatment.

[4] = system: AAD-13 (v1) gene T1 tobacco plants; test: Herbicide response of AAD-13 (v1) T1 tobacco; format: in vivo, Nicotiana tabacum; settings: for % Injury 20-40% (individuals) / % Injury <20% (individuals) / % Injury >40% (individuals) / % Injury Ave: 2 WAT; for plant response to foliar applied auxinic herbicides (injury): 14 days after application, line pDAB4114[1]003.006
Source text: as §5, §6, §7, §8

SMILES: CNC.O=C(O)COc1ccc(Cl)cc1Cl [2,4-D DMA]
- % Injury 20-40% (individuals) ([1]; 280 g ae/ha postemergence): 0
- % Injury <20% (individuals) ([1]; 280 g ae/ha postemergence): 0
- % Injury >40% (individuals) ([1]; 280 g ae/ha postemergence): 20
- % Injury Ave ([1]; 280 g ae/ha postemergence): 100%
- % Injury 20-40% (individuals) ([1]; 560 g ae/ha postemergence): 0
- % Injury <20% (individuals) ([1]; 560 g ae/ha postemergence): 0
- % Injury >40% (individuals) ([1]; 560 g ae/ha postemergence): 20
- % Injury Ave ([1]; 560 g ae/ha postemergence): 100%
- % Injury 20-40% (individuals) ([1]; 1120 g ae/ha postemergence): 0
- % Injury <20% (individuals) ([1]; 1120 g ae/ha postemergence): 0
- % Injury >40% (individuals) ([1]; 1120 g ae/ha postemergence): 20
- % Injury Ave ([1]; 1120 g ae/ha postemergence): 100%
- % Injury 20-40% (individuals) ([1]; 2240 g ae/ha postemergence): 0
- % Injury <20% (individuals) ([1]; 2240 g ae/ha postemergence): 0
- % Injury >40% (individuals) ([1]; 2240 g ae/ha postemergence): 20
- % Injury Ave ([1]; 2240 g ae/ha postemergence): 100%
- % Injury 20-40% (individuals) ([2]; 280 g ae/ha postemergence): 0
- % Injury <20% (individuals) ([2]; 280 g ae/ha postemergence): 20
- % Injury >40% (individuals) ([2]; 280 g ae/ha postemergence): 0
- % Injury Ave ([2]; 280 g ae/ha postemergence): 0%
- % Injury 20-40% (individuals) ([2]; 560 g ae/ha postemergence): 0
- % Injury <20% (individuals) ([2]; 560 g ae/ha postemergence): 20
- % Injury >40% (individuals) ([2]; 560 g ae/ha postemergence): 0
- % Injury Ave ([2]; 560 g ae/ha postemergence): 1%
- % Injury 20-40% (individuals) ([2]; 1120 g ae/ha postemergence): 0
- % Injury <20% (individuals) ([2]; 1120 g ae/ha postemergence): 20
- % Injury >40% (individuals) ([2]; 1120 g ae/ha postemergence): 0
- % Injury Ave ([2]; 1120 g ae/ha postemergence): 2%
- % Injury 20-40% (individuals) ([2]; 2240 g ae/ha postemergence): 3
- % Injury <20% (individuals) ([2]; 2240 g ae/ha postemergence): 16
- % Injury >40% (individuals) ([2]; 2240 g ae/ha postemergence): 1
- % Injury Ave ([2]; 2240 g ae/ha postemergence): 13%
- % Injury 20-40% (individuals) ([3]; 140 g ae/ha postemergence): 0
- % Injury <20% (individuals) ([3]; 140 g ae/ha postemergence): 0
- % Injury >40% (individuals) ([3]; 140 g ae/ha postemergence): 3
- % Injury Ave ([3]; 140 g ae/ha postemergence): 80.0%
- % Injury 20-40% (individuals) ([3]; 560 g ae/ha postemergence): 0
- % Injury <20% (individuals) ([3]; 560 g ae/ha postemergence): 0
- % Injury >40% (individuals) ([3]; 560 g ae/ha postemergence): 3
- % Injury Ave ([3]; 560 g ae/ha postemergence): 88.0%
- % Injury 20-40% (individuals) ([3]; 2240 g ae/ha postemergence): 0
- % Injury <20% (individuals) ([3]; 2240 g ae/ha postemergence): 0
- % Injury >40% (individuals) ([3]; 2240 g ae/ha postemergence): 3
- % Injury Ave ([3]; 2240 g ae/ha postemergence): 92.0%
- % Injury 20-40% (individuals) ([4]; 140 g ae/ha postemergence): 0
- % Injury <20% (individuals) ([4]; 140 g ae/ha postemergence): 3
- % Injury >40% (individuals) ([4]; 140 g ae/ha postemergence): 0
- % Injury Ave ([4]; 140 g ae/ha postemergence): 0.0%
- % Injury 20-40% (individuals) ([4]; 560 g ae/ha postemergence): 0
- % Injury <20% (individuals) ([4]; 560 g ae/ha postemergence): 3
- % Injury >40% (individuals) ([4]; 560 g ae/ha postemergence): 0
- % Injury Ave ([4]; 560 g ae/ha postemergence): 0.0%
- % Injury 20-40% (individuals) ([4]; 2240 g ae/ha postemergence): 0
- % Injury <20% (individuals) ([4]; 2240 g ae/ha postemergence): 3
- % Injury >40% (individuals) ([4]; 2240 g ae/ha postemergence): 0
- % Injury Ave ([4]; 2240 g ae/ha postemergence): 2.0%

SMILES: C[C@@H](Oc1ccc(Cl)cc1Cl)C(=O)O [R-dichloroprop, R-dichlorprop]
- % Injury 20-40% (individuals) ([2]; 800 g ae/ha postemergence): 0
- % Injury <20% (individuals) ([2]; 800 g ae/ha postemergence): 0
- % Injury >40% (individuals) ([2]; 800 g ae/ha postemergence): 20
- % Injury Ave ([2]; 800 g ae/ha postemergence): 100%

SMILES: Nc1c(Cl)c(F)nc(OCC(=O)O)c1Cl [fluoroxypyr]
- Ave. % Injury 14DAT ([1]; 200 g ae/ha foliar-applied): 100%
- Ave. % Injury 14DAT ([1]; 400 g ae/ha foliar-applied): 100%
- Ave. % Injury 14DAT ([1]; 800 g ae/ha foliar-applied): 100%
- Ave. % Injury 14DAT ([2]; 200 g ae/ha foliar-applied): 48%
- Ave. % Injury 14DAT ([2]; 400 g ae/ha foliar-applied): 55%
- Ave. % Injury 14DAT ([2]; 800 g ae/ha foliar-applied): 60%
- plant response to foliar applied auxinic herbicides (injury) ([3]; 280 g ae/ha): 100.0
- plant response to foliar applied auxinic herbicides (injury) ([3]; 560 g ae/ha): 100.0
- plant response to foliar applied auxinic herbicides (injury) ([3]; 1120 g ae/ha): 100.0
- plant response to foliar applied auxinic herbicides (injury) ([4]; 280 g ae/ha): 7.0
- plant response to foliar applied auxinic herbicides (injury) ([4]; 560 g ae/ha): 25.0
- plant response to foliar applied auxinic herbicides (injury) ([4]; 1120 g ae/ha): 37.0
- rate up to which significant tolerance is provided ([4]; foliar application, T1 tobacco): up to 1120 g ae/ha

SMILES: O=C(O)COc1nc(Cl)c(Cl)cc1Cl [triclopyr]
- Ave. % Injury 14DAT ([1]; 200 g ae/ha foliar-applied): 100%
- Ave. % Injury 14DAT ([1]; 400 g ae/ha foliar-applied): 100%
- Ave. % Injury 14DAT ([1]; 800 g ae/ha foliar-applied): 100%
- Ave. % Injury 14DAT ([2]; 200 g ae/ha foliar-applied): 25%
- Ave. % Injury 14DAT ([2]; 400 g ae/ha foliar-applied): 33%
- Ave. % Injury 14DAT ([2]; 800 g ae/ha foliar-applied): 79%
- plant response to foliar applied auxinic herbicides (injury) ([3]; 280 g ae/ha): 82.0
- plant response to foliar applied auxinic herbicides (injury) ([3]; 560 g ae/ha): 88.0
- plant response to foliar applied auxinic herbicides (injury) ([3]; 1120 g ae/ha): 92.0
- plant response to foliar applied auxinic herbicides (injury) ([4]; 280 g ae/ha): 53.0
- plant response to foliar applied auxinic herbicides (injury) ([4]; 560 g ae/ha): 65.0
- plant response to foliar applied auxinic herbicides (injury) ([4]; 1120 g ae/ha): 75.0
